Assay results as given in US20240287124A1, “PRODRUGS OF 4'-SUBSTITUTED NUCLEOSIDE REVERSE TRANSCRIPTASE INHIBITORS” (Merck Sharp & Dohme LLC, priority 2023, published 2024).
≈ marks a conversion by molar mass, not a printed value. Where two headings read alike, the source gives them in different places.

Experiments:
[1] = Aqueous solubility in PBS, pH 7.4; assay type: physicochemical; conditions: pH 7.4 phosphate buffered saline, 24 hours, amorphous or crystalline material; for solubility at 24 h: pH 7.4, aqueous buffer, thermodynamic from solid, read-out: Aqu. Solubility
Method in brief: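 Excess solid suspended at 0.5 mg/mL in PBS pH 7.4 and stirred 24 hours. Filtrate (0.45 μm) diluted 1:1 with ACN:H2O and quantified by UPLC against a standard curve; residual solid phase checked by XRPD and PLM.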

[2] = Plasma stability in frozen human plasma; assay type: in vitro ADME; conditions: frozen human plasma at 37° C., 0-3 hr; read-out: T1/2 Human Plasma (converted)
Procedure: Plasma stability of the compounds was evaluated in frozen human plasma at 37° C. in a 10% CO2 environment. The stability of the analyte was assessed by determining the percentage of drug loss over the course of 0, 0.25, 0.5, 1, and 3 hr. In addition, the appearance of Compound A was determined for the same time course. Percent of drug loss as based on ratio with internal standard. Analyte concentrations were measured by LC/MS/MS. Linear regression was performed with log transformed percent of average TO values and linear time values. The elimination rate constant (ke) was calculated from the slope of this regression line and the half-life (T½) calculated based on the elimination rate constant.

[3] = test system: HIV-1 wild-type (R8) virus; assay: Viral KINetics in Green cells (VIKING) assay, HIV-1 replication in MT4-GFP reporter cells; assay type: cell-based; conditions: MT4-GFP cells, HIV-1 wild-type (R8), read-out: Viking (10% NHS), IC50
Method in brief: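 Compounds in 3-fold, 10-point series (typical 4 μM-0.2 nM) in 10% normal human serum received MT4 GFP-reporter T cells pre-infected overnight with wild-type R8 virus (MOI ~0.01). Ratio of GFP-positive cells at 72 vs 48 h defined replication; IC50 from nonlinear 4-parameter dose-response fitting.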

[4] = Human immunodeficiency virus 1, 10% normal human serum

C#C[C@]1(CO)O[C@@H](n2ccc3c(N)nc(Cl)nc32)C[C@@H]1OC(=O)C(CC)CC [Example 45, (2R,3S,5R)-5-(4-amino-2-chloro-7H-pyrrolo[2,3-d]pyrimidin-7-yl)-2-ethynyl-2-(hydroxymethyl)tetrahydrofuran-3-yl 2-ethylbutanoate]
solubility at 24 h ([1]; phosphate buffered saline): 45 µg/mL (≈ 111 µM)
half-life [2]: 19.4 h
IC50 [3, 4]: 143 nM

C#C[C@]1(CO)O[C@@H](n2ccc3c(N)nc(Cl)nc32)C[C@@H]1OC(=O)C(C)C [Example 2, (2R,3S,5R)-5-(4-amino-2-chloro-7H-pyrrolo[2,3-d]pyrimidin-7-yl)-2-ethynyl-2-(hydroxymethyl)tetrahydrofuran-3-yl isobutyrate]
solubility at 24 h ([1]; phosphate buffered saline): 136 µg/mL (≈ 359 µM)
half-life [2]: 48.4 h
IC50 [3, 4]: 41 nM

C#C[C@]1(CO[P@@](=O)(N[C@@H](C)C(=O)OC(C)C)Oc2ccccc2)O[C@@H](n2ccc3c(N)nc(Cl)nc32)C[C@@H]1O [Example 8, Isopropyl ((S)-(((2R,3S,5R)-5-(4-amino-2-chloro-7H-pyrrolo[2,3-d]pyrimidin-7-yl)-2-ethynyl-3-hydroxytetrahydrofuran-2-yl)methoxy)(phenoxy)phosphoryl)-L-alaninate]
solubility at 24 h [1]: 304 µg/mL (≈ 526 µM)
half-life [2]: 13.3 h
IC50 [3, 4]: 42 nM

C#C[C@]1(CO)O[C@@H](n2ccc3c(N)nc(Cl)nc32)C[C@@H]1OC(=O)Oc1ccccc1 [Example 12, (2R,3S,5R)-5-(4-amino-2-chloro-7H-pyrrolo[2,3-d]pyrimidin-7-yl)-2-ethynyl-2-(hydroxymethyl)tetrahydrofuran-3-yl phenyl carbonate]
solubility at 24 h ([1]; phosphate buffered saline): 2.9 µg/mL (≈ 6.76 µM)
half-life [2]: 0.41 h
IC50 [3, 4]: 2.9 nM

C#C[C@]1(COC(=O)CCCC[C@@H]2SC[C@@H]3NC(=O)N[C@@H]32)O[C@@H](n2ccc3c(N)nc(Cl)nc32)C[C@@H]1OC(=O)CCCC[C@@H]1SC[C@@H]2NC(=O)N[C@@H]21 [Example 74]
solubility at 24 h ([1]; phosphate buffered saline): < 1 µg/mL
IC50 [3, 4]: 69 nM

C#C[C@]1(COC(=O)OCCCCC[C@@H]2SC[C@@H]3NC(=O)N[C@@H]32)O[C@@H](n2ccc3c(N)nc(Cl)nc32)C[C@@H]1OC(=O)OCC [Example 171]
solubility at 24 h ([1]; phosphate buffered saline): 1.9 µg/mL (≈ 2.98 µM)
IC50 [3, 4]: 18 nM

C#C[C@]1(CO)O[C@@H](n2ccc3c(N)nc(Cl)nc32)C[C@@H]1OC(=O)OCCCc1ccccc1 [Example 152]
solubility at 24 h ([1]; phosphate buffered saline): < 1 µg/mL
IC50 [3, 4]: 6 nM

C#C[C@]1(CO)O[C@@H](n2ccc3c(N)nc(Cl)nc32)C[C@@H]1OC(=O)CC [Example 65, (2R,3S,5R)-5-(4-amino-2-chloro-7H-pyrrolo[2,3-d]pyrimidin-7-yl)-2-ethynyl-2-(hydroxymethyl)tetrahydrofuran-3-yl propionate]
solubility at 24 h ([1]; phosphate buffered saline): 224 µg/mL (≈ 614 µM)
IC50 [3, 4]: 26 nM

C#C[C@]1(COC(=O)Cc2ccc(F)cc2)O[C@@H](n2ccc3c(N)nc(Cl)nc32)C[C@@H]1OC(=O)Cc1ccc(F)cc1 [Example 29, (2R,3S,5R)-5-(4-amino-2-chloro-7H-pyrrolo[2,3-d]pyrimidin-7-yl)-2-ethynyl-2-((2-(4-fluorophenyl)acetoxy)methyl)tetrahydrofuran-3-yl 2-(4-fluorophenyl)acetate]
solubility at 24 h ([1]; phosphate buffered saline): < 1 µg/mL
IC50 [3, 4]: 5.8 nM

C#C[C@]1(COC(=O)OCc2ccccc2)O[C@@H](n2ccc3c(N)nc(Cl)nc32)C[C@@H]1O [Example 122]
Aqu. Solubility [1]: 107 µg/mL
IC50 ([3]; 10% normal human serum): 4 nM

C#C[C@]1(COC(=O)CC2CCCCC2)O[C@@H](n2ccc3c(N)nc(Cl)nc32)C[C@@H]1O [Example 182]
solubility at 24 h ([1]; phosphate buffered saline): 124 µg/mL (≈ 286 µM)
IC50 [3, 4]: 3.1 nM

C#C[C@]1(COC(=O)OCCCC)O[C@@H](n2ccc3c(N)nc(Cl)nc32)C[C@@H]1OC(=O)OCC [Example 216]
solubility at 24 h ([1]; phosphate buffered saline): < 1 µg/mL
IC50 [3, 4]: 21 nM

C#C[C@]1(COC(=O)CCCC)O[C@@H](n2ccc3c(N)nc(Cl)nc32)C[C@@H]1OC(=O)OCC [Example 146]
solubility at 24 h ([1]; phosphate buffered saline): 7 µg/mL (≈ 15.1 µM)
IC50 [3, 4]: 19 nM
